# Results: patent US20090022803A1, “Oral Formulations For Delivery of Catecholic Butanes Including Ndga Compounds” (priority 2005, published 2009)
# Like-named read-outs stand apart in the source and are kept apart here.
# Type: physicochemical
# Experimental: A 10 mL solution of M4N at a concentration of about 10 mg/mL in 40% BP-β-CD was made as follows. About 10 mL of the 40% HP-β-CD solution were added to a glass beaker containing a stir bar. The beaker was placed on a magnetic plate and the stir bar was set to stir at medium speed. About […] of M4N were slowly added to the 40% HP-β-CD in the center of the beaker with the aid of a spatula. The M4N/40% HP-β-CD mixture was stirred for 2 hr or until all M4N was uniformly suspended without any clumps being present. The M4N/40% HP-β-CD mixture was optionally heated at 80° C. for about 30 min. (or longer if a larger volume of solution was desired, for example, 1 hr at 80° C. for 100 mL of the M4N/HP-β-CD mixture), or longer as needed to ensure complete dissolution of M4N. […] The final M4N/40% HP-β-CD solution was stored at room temperature and was kept protected from light. This process may be scaled up or down to obtain the requisite volume or concentration of M4N. Formulations containing M4N in other cyclodextrin solutions may be similarly made, such as, for example, by substituting HP-β-CD in the process described above with other cyclodextrins. […]
# A 10 mL solution of M4N at a concentration of about 10 mg/mL in 50% HP-β-CD/0.5% HPMC was made as follows. About 10 mL of the 50% HP-β-CD/0.5% HPMC solution were added to a glass beaker containing a stir bar. The beaker was placed on a magnetic plate and the stir bar was set to stir at medium speed. About 100 mg of M4N were slowly added to the 50% HP-β-CD/0.5% HPMC in the center of the beaker with the aid of a spatula. The M4N/50% HP-β-CD/0.5% HPMC mixture was stirred for 24 hr or until all M4N was uniformly suspended without any clumps being present. The M4N/50% HP-β-CD/0.5% HPMC mixture was heated at about 90° C. for about 30 min. (or longer if a larger volume of solution was desired, for example, 1 hr at 90° C. for 500 mL of the M4N/50% HP-β-CD/0.5% HPMC mixture), or longer as needed to ensure complete dissolution of M4N. […] The final M4N/50% HP-β-CD/0.5% HPMC solution was stored at room temperature and was kept protected from light.
# A 10 mL solution of M4N at a concentration of about 20 mg/mL in 5% EC (w/v) (the “EC formulation”) was made as follows. About 10 mL of 5% EC formulation, made as described above, were added to a glass beaker containing a stir bar. The beaker was placed on a magnetic plate and the stir bar was set to stir at medium speed, and covered with a round Teflon® cover. About 200 mg of M4N were slowly added to the 5% EC formulation in the center of the beaker with the aid of a spatula to prevent M4N from sticking to the beaker wall. The M4N/EC mixture was stirred for 2 hr or until all M4N had dissolved or was uniformly suspended without any clumps being present. The M4N/EC mixture was heated at about 60° C. for about 30 min. (or longer if a larger volume of solution was desired, for example, 1 hr at 60° C. for 500 mL of the M4N/EC mixture), or longer as needed to ensure complete dissolution of M4N. […] The final M4N/EC solution was stored at room temperature and was kept protected from light.
# A 10 mL solution of M4N at a concentration of about 50 mg/mL in sesame oil was made as follows. About 10 mL of sesame oil were added to a glass beaker containing a stir bar. The beaker was placed on a magnetic plate and the stir bar was set to stir at medium speed. About 500 mg of M4N were slowly added to the sesame oil in the center of the beaker with the aid of a spatula to prevent M4N from sticking to the beaker wall. The M4N/sesame oil mixture was stirred for about 2 hr or until all M4N had dissolved or was uniformly suspended without any clump being present. The M4N/sesame oil mixture was heated at about 60° C. for about 30 min. (or longer if a larger volume of solution was desired, for example, 1 hr at 60° C. for 500 mL of the M4N/sesame oil mixture), or longer as need to ensure complete dissolution of M4N. […]
# [1] = M4N 10 mg/mL in 32% HP-β-CD, 20% PEG 400 (v/v)
# [2] = M4N 10 mg/mL in 40% HP-β-CD, 1% PVP (w/v)
# [3] = M4N 10 mg/mL in 40% HP-β-CD, 5% PEG 400 (v/v)
# [4] = M4N 10 mg/mL in 50% HP-β-CD in saline
# [5] = M4N 10 mg/mL in 50% HP-β-CD, 0.5% HPMC
# [6] = M4N 10 mg/mL in 50% HP-β-CD, 1.25% PVP (w/v)
# [7] = M4N 12.5 mg/mL in 12.5% HP-β-CD, 50% PEG 300 (v/v)
# [8] = M4N 12.5 mg/mL in 12.5% HP-β-CD, 50% PEG 400 (v/v)
# [9] = M4N 12.5 mg/mL in 15% HP-β-CD, 50% PEG 300 (v/v)
# [10] = M4N 12.5 mg/mL in 15% HP-β-CD, 50% PEG 400 (v/v)
# [11] = M4N 12.5 mg/mL in 20% HP-β-CD, 50% PEG 300 (v/v)
# [12] = M4N 12.5 mg/mL in 20% HP-β-CD, 50% PEG 400 (v/v)
# [13] = M4N 12.5 mg/mL in 30% HP-β-CD, 25% PEG 400 (v/v)
# [14] = M4N 12.9 mg/mL in 23% HP-β-CD, 43% PEG 400 (v/v)
# [15] = M4N 12.9 mg/mL in 23% HP-β-CD, 43 PEG 300 (v/v)
# [16] = M4N 13.3 mg/mL in 27% HP-β-CD, 33% PEG 300 (v/v)
# Wherever Dissolution After Cool Down is given: key: N represents 'No'; Y represents 'Yes.'.
compound,measurement,setting,value
"COc1ccc(C[C@@H](C)[C@@H](C)Cc2ccc(OC)c(OC)c2)cc1OC [Formulation M4N, meso-1,4-bis(3,4-dimethoxyphenyl)-2,3-dimethylbutane]",Dissolution After Cool Down,[1],Y
same,Dissolution After Rotation,[1],N
same,Dissolution After Heating at X° C.,"M4N 10 mg/mL in 32% HP-β-CD, 20% PEG 400 (v/v), 60°",Y at 60°
same,Dissolution After Cool Down,M4N 10 mg/mL in 40% HP-β-CD,Y
same,Dissolution After Rotation,M4N 10 mg/mL in 40% HP-β-CD,N
same,Dissolution After Heating at X° C.,[2],N
same,Dissolution After Rotation,[2],N
same,Dissolution After Rotation,"M4N 10 mg/mL in 40% HP-β-CD, 2.5% PG (v/v)",N
same,Dissolution After Heating at X° C.,"M4N 10 mg/mL in 40% HP-β-CD, 2.5% PG (v/v), 80°",N at 80°
same,Dissolution After Cool Down,[3],N
same,Dissolution After Rotation,[3],N
same,Dissolution After Heating at X° C.,"M4N 10 mg/mL in 40% HP-β-CD, 5% PEG 400 (v/v), 60°",Y at 60°
same,Dissolution After Heating at X° C.,"M4N 10 mg/mL in 40% HP-β-CD, 80°",Y at 80°
same,Dissolution After Cool Down,M4N 10 mg/mL in 50% HP-β-CD,Y
same,Dissolution After Rotation,M4N 10 mg/mL in 50% HP-β-CD,N
same,Dissolution After Cool Down,[4],Y
same,Dissolution After Rotation,[4],N
same,Dissolution After Heating at X° C.,"M4N 10 mg/mL in 50% HP-β-CD in saline, 90°",Y at 90°
same,Dissolution After Cool-Down,[5],Y
same,Dissolution After Rotation,[5],N
same,Dissolution After Rotation,"M4N 10 mg/mL in 50% HP-β-CD, 0.5% HPMC, other experiment, no heat",Suspension
same,Dissolution After Heating at X° C.,[6],N
same,Dissolution After Rotation,[6],N
same,Dissolution After Heating at X° C.,"M4N 10 mg/mL in 50% HP-β-CD, 90°",Y at 90°
same,Dissolution After Cool-Down,M4N 10 mg/mL in Corn Oil,Y
same,Dissolution After Cool-Down,M4N 10 mg/mL in Mineral Oil,Y
same,Dissolution After Cool-Down,M4N 10 mg/mL in Soybean Oil,Y
same,Dissolution After Rotation,M4N 12 mg/mL in 40% HP-β-CD,N
same,Dissolution After Heating at X° C.,"M4N 12 mg/mL in 40% HP-β-CD, 80°",N at 80°
same,Dissolution After Cool Down,[7],Y
same,Dissolution After Rotation,[7],N
same,Dissolution After Heating at X° C.,"M4N 12.5 mg/mL in 12.5% HP-β-CD, 50% PEG 300 (v/v), 60°",Y at 60°
same,Dissolution After Cool Down,[8],Y
same,Dissolution After Rotation,[8],N
same,Dissolution After Heating at X° C.,"M4N 12.5 mg/mL in 12.5% HP-β-CD, 50% PEG 400 (v/v), 60°",Y at 60°
same,Dissolution After Cool Down,[9],Y
same,Dissolution After Rotation,[9],N
same,Dissolution After Heating at X° C.,"M4N 12.5 mg/mL in 15% HP-β-CD, 50% PEG 300 (v/v), 60°",Y at 60°
same,Dissolution After Cool Down,[10],Y
same,Dissolution After Rotation,[10],N
same,Dissolution After Heating at X° C.,"M4N 12.5 mg/mL in 15% HP-β-CD, 50% PEG 400 (v/v), 60°",Y at 60°
same,Dissolution After Cool Down,[11],Y
same,Dissolution After Rotation,[11],N
same,Dissolution After Heating at X° C.,"M4N 12.5 mg/mL in 20% HP-β-CD, 50% PEG 300 (v/v), 60°",Y at 60°
same,Dissolution After Cool Down,[12],Y
same,Dissolution After Rotation,[12],N
same,Dissolution After Heating at X° C.,"M4N 12.5 mg/mL in 20% HP-β-CD, 50% PEG 400 (v/v), 60°",Y at 60°
same,Dissolution After Cool Down,[13],Y
same,Dissolution After Rotation,[13],N
same,Dissolution After Heating at X° C.,"M4N 12.5 mg/mL in 30% HP-β-CD, 25% PEG 400 (v/v), 60°",Y at 60°
same,Dissolution After Cool Down,[14],Y
same,Dissolution After Rotation,[14],N
same,Dissolution After Heating at X° C.,"M4N 12.9 mg/mL in 23% HP-β-CD, 43% PEG 400 (v/v), 60° C.",Y at 60 °C
same,Dissolution After Cool Down,[15],Y
same,Dissolution After Rotation,[15],N
same,Dissolution After Heating at X° C.,"M4N 12.9 mg/mL in 23% HP-β-CD, 43 PEG 300 (v/v), 60°",Y at 60°
same,Dissolution After Cool Down,[16],Y
same,Dissolution After Rotation,[16],N
same,Dissolution After Heating at X° C.,"M4N 13.3 mg/mL in 27% HP-β-CD, 33% PEG 300 (v/v), 60°",Y at 60°
